From patent US20250002507A1, “7,8-DIHYDRO-5H-1,6-NAPHTHYRIDINE DERIVATIVES AS POSITIVE ALLOSTERIC MODULATORS OF THE MUSCARINIC ACETYLCHOLINE RECEPTOR M4 FOR TREATING NEUROLOGICAL AND PSYCHIATRIC DISORDERS” (Vanderbilt University, priority 2021, published 2025)

Biological target: T1, Human M4 (Homo sapiens, UniProt P08173)
T1 construct: expressed in transfected cells
T1 sequence (P08173 1-479): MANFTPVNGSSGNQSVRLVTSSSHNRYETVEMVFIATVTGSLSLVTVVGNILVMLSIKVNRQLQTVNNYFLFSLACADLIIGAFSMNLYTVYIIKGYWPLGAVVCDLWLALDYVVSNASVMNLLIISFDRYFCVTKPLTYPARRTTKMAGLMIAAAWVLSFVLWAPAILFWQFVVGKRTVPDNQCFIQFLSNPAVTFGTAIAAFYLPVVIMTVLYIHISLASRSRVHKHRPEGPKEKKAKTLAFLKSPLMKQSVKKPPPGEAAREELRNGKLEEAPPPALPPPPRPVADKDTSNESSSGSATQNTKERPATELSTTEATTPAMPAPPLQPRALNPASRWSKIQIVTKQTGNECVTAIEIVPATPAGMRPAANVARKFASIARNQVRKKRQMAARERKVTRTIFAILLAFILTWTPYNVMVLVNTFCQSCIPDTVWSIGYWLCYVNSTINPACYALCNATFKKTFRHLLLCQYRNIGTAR
Assay: mAChR M4 cell-based functional assay (calcium flux, potentiation of EC20 acetylcholine response), hM4-Gqi5 CHO-K1 cells
Details: Table 4; for Emax at 30 µM: CHO-K1, Human M4, % ACh maximum at 30 μM, read-out: Emax (% ACh maximum at 30 μM); for EC50: potentiation of EC20 acetylcholine response, calcium flux, CHO-K1 cells, read-out: Human M4 EC50
How it was run: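 Positive allosteric modulation was scored as a concentration-dependent rise in the response to an EC20 dose of acetylcholine, added 144 s after the compound. Human M4-Gqi5 CHO-K1 cells carried Fluo-4 dye, and compounds ran as 11-point, 3-fold dilution series. EC50 and Emax came from four-parameter logistic fits of the FDSS fluorescence-ratio traces.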

Structure (SMILES) | Emax at 30 µM | EC50
Cc1c(N2CCc3ncc(Cc4ccccc4F)cc3C2)nn2c(C(F)(F)F)nnc2c1C [Compound 309, 6-(7,8-dimethyl-3-(trifluoromethyl)-[1,2,4]triazolo[4,3-b]pyridazin-6-yl)-3-(2-fluorobenzyl)-5,6,7,8-tetrahydro-1,6-naphthyridine] | 83% | 1410 nM
Cc1ccc(Oc2cnc3c(c2)CN(c2nn4cnnc4cc2C)CC3)c(F)c1 [Compound 310, 3-(2-fluoro-4-methylphenoxy)-6-(7-methyl-[1,2,4]triazolo[4,3-b]pyridazin-6-yl)-5,6,7,8-tetrahydro-1,6-naphthyridine] | 81% | 182 nM
Cc1c(N2CCc3ncc(Cc4cccc(F)c4)cc3C2)nn2cnnc2c1C [Compound 311, 6-(7,8-dimethyl-[1,2,4]triazolo[4,3-b]pyridazin-6-yl)-3-(3-fluorobenzyl)-5,6,7,8-tetrahydro-1,6-naphthyridine] | 81% | 246 nM
Cc1c(N2CCc3ncc(Cc4cccc(F)c4)cc3C2)nn2c(C(F)(F)F)nnc2c1C [Compound 312, 6-(7,8-dimethyl-3-(trifluoromethyl)-[1,2,4]triazolo[4,3-b]pyridazin-6-yl)-3-(3-fluorobenzyl)-5,6,7,8-tetrahydro-1,6-naphthyridine] | 60% | 1800 nM
Cc1c(N2CCc3ncc(N4CCO[C@H](C)C4)cc3C2)nn2c(C(F)(F)F)nnc2c1C [Compound 313, (R)-4-(6-(7,8-dimethyl-3-(trifluoromethyl)-[1,2,4]triazolo[4,3-b]pyridazin-6-yl)-5,6,7,8-tetrahydro-1,6-naphthyridin-3-yl)-2-methylmorpholine] | 82% | 296 nM
Cc1c(N2CCc3ncc(N4CCOC[C@H]4C)cc3C2)nn2c(C(F)(F)F)nnc2c1C [Compound 314, (R)-4-(6-(7,8-dimethyl-3-(trifluoromethyl)-[1,2,4]triazolo[4,3-b]pyridazin-6-yl)-5,6,7,8-tetrahydro-1,6-naphthyridin-3-yl)-3-methylmorpholine] | 98% | 321 nM
Cc1c(N2CCc3ncc(N4CCOC[C@@H]4C)cc3C2)nn2c(C(F)(F)F)nnc2c1C [Compound 315, (S)-4-(6-(7,8-dimethyl-3-(trifluoromethyl)-[1,2,4]triazolo[4,3-b]pyridazin-6-yl)-5,6,7,8-tetrahydro-1,6-naphthyridin-3-yl)-3-methylmorpholine] | 85% | 1900 nM
Cc1c(N2CCc3ncc(N4CC5CC4CO5)cc3C2)nn2c(C(F)(F)F)nnc2c1C (centres unmarked) [Compound 316, 5-(6-(7,8-dimethyl-3-(trifluoromethyl)-[1,2,4]triazolo[4,3-b]pyridazin-6-yl)-5,6,7,8-tetrahydro-1,6-naphthyridin-3-yl)-2-oxa-5-azabicyclo[2.2.1]heptane] | 78% | 573 nM
COC1CCN(c2cnc3c(c2)CN(c2nn4c(C(F)(F)F)nnc4c(C)c2C)CC3)CC1 [Compound 317, 6-(7,8-dimethyl-3-(trifluoromethyl)-[1,2,4]triazolo[4,3-b]pyridazin-6-yl)-3-(4-methoxypiperidin-1-yl)-5,6,7,8-tetrahydro-1,6-naphthyridine] | 84% | 1400 nM
Cc1c(N2CCc3ncc(N4C[C@@H](C)O[C@@H](C)C4)cc3C2)nn2c(C(F)(F)F)nnc2c1C [Compound 318, (2R,6S)-4-(6-(7,8-dimethyl-3-(trifluoromethyl)-[1,2,4]triazolo[4,3-b]pyridazin-6-yl)-5,6,7,8-tetrahydro-1,6-naphthyridin-3-yl)-2,6-dimethylmorpholine] | 80% | 2150 nM
Cc1cc2nnc(C(F)(F)F)n2nc1N1CCc2ncc(C(F)(F)F)cc2C1 [Compound 319, 6-(7-methyl-3-(trifluoromethyl)-[1,2,4]triazolo[4,3-b]pyridazin-6-yl)-3-(trifluoromethyl)-5,6,7,8-tetrahydro-1,6-naphthyridine] | 96% | 794 nM
Cc1cc2n(n1)CCCN2c1cnc2c(c1)CN(c1nn3c(C(F)(F)F)nnc3c(C)c1C)CC2 [Compound 320, 6-(7,8-dimethyl-3-(trifluoromethyl)-[1,2,4]triazolo[4,3-b]pyridazin-6-yl)-3-(2-methyl-6,7-dihydropyrazolo[1,5-a]pyrimidin-4(5H)-yl)-5,6,7,8-tetrahydro-1,6-naphthyridine] | 76% | 121 nM
Cc1c(N2CCc3ncc(C(F)(F)F)cc3C2)nn2c(C(F)(F)F)nnc2c1C [Compound 321, 6-(7,8-dimethyl-3-(trifluoromethyl)-[1,2,4]triazolo[4,3-b]pyridazin-6-yl)-3-(trifluoromethyl)-5,6,7,8-tetrahydro-1,6-naphthyridine] | 72% | 270 nM
Cc1c(N2CCc3ncc(N4CCO[C@H](c5ccccc5)C4)cc3C2)nn2c(C(F)(F)F)nnc2c1C [Compound 322, (R)-4-(6-(7,8-dimethyl-3-(trifluoromethyl)-[1,2,4]triazolo[4,3-b]pyridazin-6-yl)-5,6,7,8-tetrahydro-1,6-naphthyridin-3-yl)-2-phenylmorpholine] | 96% | 3140 nM
Cc1c(N2CCc3ncc(N4CCO[C@@H](c5ccccc5)C4)cc3C2)nn2c(C(F)(F)F)nnc2c1C [Compound 323, (S)-4-(6-(7,8-dimethyl-3-(trifluoromethyl)-[1,2,4]triazolo[4,3-b]pyridazin-6-yl)-5,6,7,8-tetrahydro-1,6-naphthyridin-3-yl)-2-phenylmorpholine] | 46% | 8910 nM
Cc1cc2nnc(C(F)(F)F)n2nc1N1CCc2ncc(N3CCOc4ncccc43)cc2C1 [Compound 324, 1-(6-(7-methyl-3-(trifluoromethyl)-[1,2,4]triazolo[4,3-b]pyridazin-6-yl)-5,6,7,8-tetrahydro-1,6-naphthyridin-3-yl)-2,3-dihydro-1H-pyrido[2,3-b][1,4]oxazine] | 111% | 153 nM
Cc1cc2nnc(C(F)(F)F)n2nc1N1CCc2ncc(N3CCCn4nccc43)cc2C1 [Compound 325, 3-(6,7-dihydropyrazolo[1,5-a]pyrimidin-4(5H)-yl)-6-(7-methyl-3-(trifluoromethyl)-[1,2,4]triazolo[4,3-b]pyridazin-6-yl)-5,6,7,8-tetrahydro-1,6-naphthyridine] | 116% | 50 nM
Cc1cc2nnc(C(F)(F)F)n2nc1N1CCc2ncc(N3CCOC(c4ccccn4)C3)cc2C1 (centres unmarked) [Compound 326, 4-(6-(7-methyl-3-(trifluoromethyl)-[1,2,4]triazolo[4,3-b]pyridazin-6-yl)-5,6,7,8-tetrahydro-1,6-naphthyridin-3-yl)-2-(pyridin-2-yl)morpholine] | 62% | 2080 nM
Cc1c(N2CCc3ncc(N4CCOC(c5ccccn5)C4)cc3C2)nn2c(C(F)(F)F)nnc2c1C (centres unmarked) [Compound 327, 4-(6-(7,8-dimethyl-3-(trifluoromethyl)-[1,2,4]triazolo[4,3-b]pyridazin-6-yl)-5,6,7,8-tetrahydro-1,6-naphthyridin-3-yl)-2-(pyridin-2-yl)morpholine] | 68% | 1310 nM
Cc1c(N2CCc3ncc(N4CCOC(c5cccnc5)C4)cc3C2)nn2c(C(F)(F)F)nnc2c1C (centres unmarked) [Compound 328, 4-(6-(7,8-dimethyl-3-(trifluoromethyl)-[1,2,4]triazolo[4,3-b]pyridazin-6-yl)-5,6,7,8-tetrahydro-1,6-naphthyridin-3-yl)-2-(pyridin-3-yl)morpholine] | 76% | 623 nM
Cc1cc2nnc(C(F)(F)F)n2nc1N1CCc2ncc(N3CCOC(c4cccnc4)C3)cc2C1 (centres unmarked) [Compound 329, 4-(6-(7-methyl-3-(trifluoromethyl)-[1,2,4]triazolo[4,3-b]pyridazin-6-yl)-5,6,7,8-tetrahydro-1,6-naphthyridin-3-yl)-2-(pyridin-3-yl)morpholine] | 80% | 1490 nM
Cc1cc2nncn2nc1N1Cc2cc(N3CCOCC3)cnc2C(C)C1 (centres unmarked) [Compound 330, 4-(8-methyl-6-(7-methyl-[1,2,4]triazolo[4,3-b]pyridazin-6-yl)-5,6,7,8-tetrahydro-1,6-naphthyridin-3-yl)morpholine] | 83% | 2150 nM
Cc1c(N2Cc3cc(N4CCOCC4)cnc3C(C)C2)nn2cnnc2c1C (centres unmarked) [Compound 331, 4-(6-(7,8-dimethyl-[1,2,4]triazolo[4,3-b]pyridazin-6-yl)-8-methyl-5,6,7,8-tetrahydro-1,6-naphthyridin-3-yl)morpholine] | 94% | 700 nM
Cc1cc2nncn2nc1N1CCc2ncc(N3CCN(C)C(=O)C3)cc2C1 [Compound 332, 1-methyl-4-(6-(7-methyl-[1,2,4]triazolo[4,3-b]pyridazin-6-yl)-5,6,7,8-tetrahydro-1,6-naphthyridin-3-yl)piperazin-2-one] | 71% | 2590 nM
Cc1c(N2CCc3ncc(N4CCN(C)C(=O)C4)cc3C2)nn2cnnc2c1C [Compound 333, 4-(6-(7,8-dimethyl-[1,2,4]triazolo[4,3-b]pyridazin-6-yl)-5,6,7,8-tetrahydro-1,6-naphthyridin-3-yl)-1-methylpiperazin-2-one] | 52% | 1340 nM
